We go through 12 compounds from article PMC7531004, “Discovery of gramicidin A analogues with altered activities by multidimensional screening of a one-bead-one-compound library” (Nature Communications, 2020).

Where a SMILES comes first, the peptide text is derived from it. [ ]: non-standard residue; d: D form. The star is where a group is joined. NHCH2CH2OH = OCCN*; For = O=C*

Data set [1] concerns P388 mouse leukemia cells. Particulars: 92 h. The procedure, abridged:
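P388 cells at 1 × 10^4 cells/mL (final) were exposed to library peptides (stocks diluted 250-fold in RPMI1640/10% FBS) for 92 h at 37 °C, 5% CO2. Viable cells were counted by WST-1/1-methoxy PMS (4 h), absorbance 415 nm, and expressed as cell viability (%).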

The subject of data set [2] is Streptococcus pyogenes SSI-9. The data set can be described thus: Antibacterial activity assay of bead-derived peptides (three concentrations). Also on record: key: +++: inhibition by the 640-fold diluted peptide solution; ++: inhibition by the 160-fold diluted solution; +: inhibition by the 40-fold diluted solution; -: no inhibition. Particulars: S. pyogenes, bead-derived peptide solution, three concentrations. It is filed as cell-based. Summed up:
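Undiluted, 4-fold and 16-fold DMSO-diluted peptide stocks; S. pyogenes SSI-9, 2 × 10^5 CFU, cation-adjusted MHB (50 mg/L Ca2+, 25 mg/L Mg2+) + 5% laked horse blood; 37 °C, 18 h; readout = cell pellet visible or not.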

The nature of data set [3]: H+/Na+ transport assay of bead-derived peptides (one-point).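 Also: relative to parent gramicidin A activity set to 1.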 It is filed as biochemical. More on the design: key: relative activity; mean of two control wells = 1.00. Particulars: bead-derived peptide solution, EYPC/EYPG LUVs. Summed up:
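H+/Na+ transport is monitored through pyranine fluorescence in freshly extruded LUVs after a 30-min room-temperature vortex with each library peptide at a single concentration. Signals are normalized to detergent (Triton X-100) and untreated controls.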

In data set [1], `CC(C)C[C@@H](NC(=O)[C@H](C)NC(=O)[C@H](NC(=O)[C@H](C)NC(=O)CNC(=O)[C@@H](NC=O)C(C)C)C(C)C)C(=O)N[C@H](C(=O)N[C@@H](C(=O)N[C@@H](Cc1c[nH]c2ccccc12)C(=O)N[C@@H](C(=O)N[C@@H](Cc1c[nH]c2ccccc12)C(=O)N[C@H](CC(C)C)C(=O)N[C@@H](Cc1c[nH]c2ccccc12)C(=O)N[C@@H](C(=O)N[C@@H](Cc1c[nH]c2ccccc12)C(=O)NCCO)C(C)C)C(C)C)[C@H](C)O)C(C)C` [compound 7131] (For-VGA[dV]A[dL]V[dT]W[dV]W[dL]W[dV]W-NHCH2CH2OH) had a cell viability/% of 100.0%. Further, the antibacterial activity entry in data set [2] is recorded as “-”. The “H+/Na+ transport activity normalized against the value of 1 (1.00)” value (shortened to “H+/Na+ transport activity normalized”) in data set [3] is listed as 1.08.

The compound `CC(C)C[C@@H](NC(=O)[C@H](C)NC(=O)[C@H](NC(=O)[C@H](C)NC(=O)CNC(=O)[C@@H](NC=O)C(C)C)[C@H](C)O)C(=O)N[C@H](C(=O)N[C@H](CC(C)C)C(=O)N[C@@H](Cc1c[nH]c2ccccc12)C(=O)N[C@@H](C(=O)N[C@@H](Cc1c[nH]c2ccccc12)C(=O)N[C@H](CC(C)C)C(=O)N[C@@H](Cc1c[nH]c2ccccc12)C(=O)N[C@@H](C(=O)N[C@@H](Cc1c[nH]c2ccccc12)C(=O)NCCO)C(C)C)[C@H](C)O)C(C)C` [compound 7135] (For-VGA[dT]A[dL]V[dL]W[dT]W[dL]W[dV]W-NHCH2CH2OH) had a cell viability/% in data set [1] of 100.0%. In addition, the antibacterial activity result in data set [2] is given as “-”. Also, the “H+/Na+ transport activity normalized” value in data set [3] was found to be 1.09.

`CC(C)C[C@@H](NC(=O)[C@H](C)NC(=O)[C@H](NC(=O)[C@H](C)NC(=O)CNC(=O)[C@@H](NC=O)C(C)C)C(C)C)C(=O)N[C@H](C(=O)N[C@@H](C(=O)N[C@@H](Cc1c[nH]c2ccccc12)C(=O)N[C@H](CC(C)C)C(=O)N[C@@H](Cc1c[nH]c2ccccc12)C(=O)N[C@@H](C(=O)N[C@@H](Cc1c[nH]c2ccccc12)C(=O)N[C@H](CC(C)C)C(=O)N[C@@H](Cc1c[nH]c2ccccc12)C(=O)NCCO)C(C)C)C(C)C)C(C)C` [compound 7146] (For-VGA[dV]A[dL]V[dV]W[dL]W[dV]W[dL]W-NHCH2CH2OH) yielded a cell viability/% in data set [1] of 100.0%. Also, the antibacterial activity result in data set [2] is “+”. Moreover, in data set [3], the “H+/Na+ transport activity normalized” value is given as 1.17.

As to `CC(C)C[C@@H](NC(=O)[C@H](C)NC(=O)[C@H](NC(=O)[C@H](C)NC(=O)CNC(=O)[C@@H](NC=O)C(C)C)C(C)C)C(=O)N[C@H](C(=O)N[C@@H](C(=O)N[C@@H](Cc1c[nH]c2ccccc12)C(=O)N[C@@H](C(=O)N[C@@H](Cc1c[nH]c2ccccc12)C(=O)N[C@H](CC(C)C)C(=O)N[C@@H](Cc1c[nH]c2ccccc12)C(=O)N[C@H](CC(C)C)C(=O)N[C@@H](Cc1c[nH]c2ccccc12)C(=O)NCCO)C(C)C)C(C)C)C(C)C` [compound 7169] (For-VGA[dV]A[dL]V[dV]W[dV]W[dL]W[dL]W-NHCH2CH2OH), the cell viability/% in data set [1] was 90.3%. In addition, the antibacterial activity result in data set [2] is on record as “+”. For the same compound, the “H+/Na+ transport activity normalized” value in data set [3] is recorded as 1.15.

In turn, `CC(C)C[C@@H](NC(=O)[C@H](C)NC(=O)CNC(=O)[C@@H](NC=O)C(C)C)C(=O)N[C@@H](C)C(=O)N[C@@H](C(=O)N[C@H](C(=O)N[C@H](CC(C)C)C(=O)N[C@@H](Cc1c[nH]c2ccccc12)C(=O)N[C@H](CC(C)C)C(=O)N[C@@H](Cc1c[nH]c2ccccc12)C(=O)N[C@@H](C(=O)N[C@@H](Cc1c[nH]c2ccccc12)C(=O)N[C@H](CC(C)C)C(=O)N[C@@H](Cc1c[nH]c2ccccc12)C(=O)NCCO)C(C)C)C(C)C)C(C)C` [compound 7191] (For-VGA[dL]A[dV]V[dL]W[dL]W[dV]W[dL]W-NHCH2CH2OH) registered a cell viability/% in data set [1] of 0.0%. For the same compound, in data set [2], the antibacterial activity result is on record as “+”. Moreover, in data set [3], the “H+/Na+ transport activity normalized” value was determined as 1.15.

In data set [1], `CC(C)C[C@@H](NC(=O)[C@H](C)NC(=O)CNC(=O)[C@@H](NC=O)C(C)C)C(=O)N[C@@H](C)C(=O)N[C@H](CC(C)C)C(=O)N[C@H](C(=O)N[C@@H](C(=O)N[C@@H](Cc1c[nH]c2ccccc12)C(=O)N[C@@H](C(=O)N[C@@H](Cc1c[nH]c2ccccc12)C(=O)N[C@H](CC(C)C)C(=O)N[C@@H](Cc1c[nH]c2ccccc12)C(=O)N[C@H](CC(C)C)C(=O)N[C@@H](Cc1c[nH]c2ccccc12)C(=O)NCCO)C(C)C)C(C)C)C(C)C` [compound 7198] (For-VGA[dL]A[dL]V[dV]W[dV]W[dL]W[dL]W-NHCH2CH2OH) registered a cell viability/% of 16.1%. Further, the antibacterial activity entry in data set [2] was “+”. Further, the “H+/Na+ transport activity normalized” value in data set [3] is 1.09.

Regarding `CC(C)C[C@@H](NC(=O)[C@H](C)NC(=O)CNC(=O)[C@@H](NC=O)C(C)C)C(=O)N[C@@H](C)C(=O)N[C@H](CC(C)C)C(=O)N[C@H](C(=O)N[C@H](CC(C)C)C(=O)N[C@@H](Cc1c[nH]c2ccccc12)C(=O)N[C@@H](C(=O)N[C@@H](Cc1c[nH]c2ccccc12)C(=O)N[C@H](CC(C)C)C(=O)N[C@@H](Cc1c[nH]c2ccccc12)C(=O)N[C@H](CC(C)C)C(=O)N[C@@H](Cc1c[nH]c2ccccc12)C(=O)NCCO)[C@H](C)O)C(C)C` [compound 7211] (For-VGA[dL]A[dL]V[dL]W[dT]W[dL]W[dL]W-NHCH2CH2OH), the cell viability/% in data set [1] amounted to 100.0%. Further, in data set [2], the antibacterial activity entry was “-”. Besides, the “H+/Na+ transport activity normalized” value in data set [3] amounted to 1.03.

In turn, `CNC(=O)C[C@@H](NC(=O)[C@H](Cc1c[nH]c2ccccc12)NC(=O)[C@H](NC(=O)[C@H](Cc1c[nH]c2ccccc12)NC(=O)[C@@H](CC(C)C)NC(=O)[C@H](Cc1c[nH]c2ccccc12)NC(=O)[C@H](NC(=O)[C@@H](NC(=O)[C@@H](CC(C)C)NC(=O)[C@H](C)NC(=O)[C@H](NC(=O)[C@H](C)NC(=O)CNC(=O)[C@@H](NC=O)C(C)C)C(C)C)C(C)C)C(C)C)C(C)C)C(=O)N[C@@H](Cc1c[nH]c2ccccc12)C(=O)NCCO` [compound 7228] (For-VGA[dV]A[dL]V[dV]W[dL]W[dV]W[dD](NHMe)W-NHCH2CH2OH) came in with a cell viability/% in data set [1] of 100.0%. Further, the antibacterial activity entry in data set [2] was “-”. Also, the “H+/Na+ transport activity normalized” value in data set [3] turned out to be 1.06.

As to `CNC(=O)C[C@@H](NC(=O)[C@H](Cc1c[nH]c2ccccc12)NC(=O)[C@H](NC(=O)[C@H](Cc1c[nH]c2ccccc12)NC(=O)[C@H](NC(=O)[C@H](Cc1c[nH]c2ccccc12)NC(=O)[C@@H](CC(C)C)NC(=O)[C@@H](NC(=O)[C@H](NC(=O)[C@H](C)NC(=O)[C@H](NC(=O)[C@H](C)NC(=O)CNC(=O)[C@@H](NC=O)C(C)C)C(C)C)C(C)C)C(C)C)C(C)C)C(C)C)C(=O)N[C@@H](Cc1c[nH]c2ccccc12)C(=O)NCCO` [compound 7271] (For-VGA[dV]A[dV]V[dL]W[dV]W[dV]W[dD](NHMe)W-NHCH2CH2OH), the cell viability/% in data set [1] came to 10.6%. In data set [2], the antibacterial activity entry is listed as “-”. The “H+/Na+ transport activity normalized” value in data set [3] is 1.02.

In data set [1], `CC(C)C[C@@H](NC(=O)[C@H](C)NC(=O)[C@H](NC(=O)[C@H](C)NC(=O)CNC(=O)[C@@H](NC=O)C(C)C)C(C)C)C(=O)N[C@H](C(=O)N[C@H](CC(C)C)C(=O)N[C@@H](Cc1c[nH]c2ccccc12)C(=O)N[C@@H](C(=O)N[C@@H](Cc1c[nH]c2ccccc12)C(=O)N[C@@H](C(=O)N[C@@H](Cc1c[nH]c2ccccc12)C(=O)N[C@H](CC(C)C)C(=O)N[C@@H](Cc1c[nH]c2ccccc12)C(=O)NCCO)C(C)C)[C@H](C)O)C(C)C` [compound 7325] (For-VGA[dV]A[dL]V[dL]W[dT]W[dV]W[dL]W-NHCH2CH2OH) registered a cell viability/% of 82.2%. Further, the antibacterial activity result in data set [2] is recorded as “-”. Besides, the “H+/Na+ transport activity normalized” value in data set [3] is on record as 1.04.

In data set [1], `CC(C)C[C@@H](NC(=O)[C@H](C)NC(=O)[C@H](NC(=O)[C@H](C)NC(=O)CNC(=O)[C@@H](NC=O)C(C)C)C(C)C)C(=O)N[C@H](C(=O)N[C@@H](C(=O)N[C@@H](Cc1c[nH]c2ccccc12)C(=O)N[C@@H](C(=O)N[C@@H](Cc1c[nH]c2ccccc12)C(=O)N[C@H](CC(C)C)C(=O)N[C@@H](Cc1c[nH]c2ccccc12)C(=O)N[C@@H](C(=O)N[C@@H](Cc1c[nH]c2ccccc12)C(=O)NCCO)[C@H](C)O)C(C)C)C(C)C)C(C)C` [compound 7393] (For-VGA[dV]A[dL]V[dV]W[dV]W[dL]W[dT]W-NHCH2CH2OH) yielded a cell viability/% of 100.0%. Besides, the antibacterial activity entry in data set [2] was “-”. Further, the “H+/Na+ transport activity normalized” value in data set [3] was found to be 1.07.

As to `CNC(=O)C[C@@H](NC(=O)[C@@H](NC(=O)[C@@H](CC(C)C)NC(=O)[C@H](C)NC(=O)[C@@H](CC(C)C)NC(=O)[C@H](C)NC(=O)CNC(=O)[C@@H](NC=O)C(C)C)C(C)C)C(=O)N[C@@H](Cc1c[nH]c2ccccc12)C(=O)N[C@H](CC(C)C)C(=O)N[C@@H](Cc1c[nH]c2ccccc12)C(=O)N[C@@H](C(=O)N[C@@H](Cc1c[nH]c2ccccc12)C(=O)N[C@H](CC(C)C)C(=O)N[C@@H](Cc1c[nH]c2ccccc12)C(=O)NCCO)C(C)C` [compound 7400] (For-VGA[dL]A[dL]V[dD](NHMe)W[dL]W[dV]W[dL]W-NHCH2CH2OH), the cell viability/% in data set [1] is 100.0%. For the same compound, in data set [2], the antibacterial activity entry is recorded as “-”. In data set [3], the “H+/Na+ transport activity normalized” value amounted to 1.30.
